Patent publication US10660334B2, “Fused bicyclic heterocycle derivatives as pesticides” (Bayer CropScience Aktiengesellschaft, priority 2016, dated 2020)

Tests used:
Myzus persicae [1] = assay: Myzus persicae spray test; assay type: in vivo; settings: foliar, 120 h, spray on Chinese cabbage leaf discs, after 5 days, read-out: efficacy (aphids killed); for pest or weed control at 20 g/ha: application rate 20 g/ha; for pest or weed control at 100 g/ha: application rate 100 g/ha
Protocol: Myzus persicae—Spray Test Solvent: 78 parts by weight of acetone • • 1.5 parts by weight of dimethylformamide Emulsifier: alkylaryl polyglycol ether To produce a suitable active ingredient formulation, 1 part by weight of active ingredient is dissolved with the specified parts by weight of solvent and made up to the desired concentration with water containing an emulsifier concentration of 1000 ppm. To produce further test concentrations, the formulation is diluted with emulsifier-containing water. Discs of Chinese cabbage leaves (Brassica pekinensis) infested by all stages of the green peach aphid (Myzus persicae) are sprayed with an active ingredient formulation of the desired concentration. After 5 days, the efficacy in % is determined. 100% means that all the aphids have been killed; 0% means that no aphids have been killed.

Phaedon cochleariae = Phaedon cochleariae spray test; assay type: in vivo; settings: spray on Chinese cabbage leaf discs, after 7 days
Protocol: Phaedon cochleariae—Spray Test
Solvent: 78.0 parts by weight of acetone • • 1.5 parts by weight of dimethylformamide
Emulsifier: alkylaryl polyglycol ether
To produce a suitable active ingredient formulation, 1 part by weight of active ingredient is dissolved with the specified parts by weight of solvent and made up to the desired concentration with water containing an emulsifier concentration of 1000 ppm. To produce further test concentrations, the formulation is diluted with emulsifier-containing water.
Discs of Chinese cabbage leaves (Brassica pekinensis) are sprayed with an active ingredient formulation of the desired concentration and, after drying, populated with larvae of the mustard beetle (Phaedon cochleariae).
After 7 days, the efficacy in % is determined. 100% means that all the beetle larvae have been killed; 0% means that no beetle larvae have been killed.

[2] = log P by HPLC on reversed-phase column (EEC Directive 79/831 Annex V.A8), acidic range; assay type: physicochemical; settings: reversed-phase C18 HPLC column; HPLC reversed-phase C18, 55° C., pH 2.7, 0.1% aqueous formic acid and acetonitrile; read-out: log P (HCOOH)
Protocol: The log P values are measured according to EEC Directive 79/831 Annex V.A8 by HPLC (high-performance liquid chromatography) on a reversed-phase column (C18). Temperature: 55° C. The LC-MS determination in the acidic range is effected at pH 2.7 with 0.1% aqueous formic acid and acetonitrile (containing 0.1% formic acid) as eluents; linear gradient from 10% acetonitrile to 95% acetonitrile. Called log P (HCOOH) in the table.

Myzus persicae [3] = assay: Myzus persicae oral test; assay type: in vivo; settings: 120 h, application rate 4 ppm, after 5 days, read-out: efficacy (aphids killed)
Protocol: Myzus persicae—Oral Test Solvent: 100 parts by weight of acetone To produce a suitable active ingredient formulation, 1 part by weight of active ingredient is dissolved with the stated parts by weight of solvent and made up to the desired concentration with water. 50 μl of the active ingredient preparation are transferred into microtitre plates and made up to a final volume of 200 μl with 150 μl of IPL41 insect medium (33%+15% sugar). Subsequently, the plates are sealed with parafilm, which a mixed population of green peach aphids (Myzus persicae) within a second microtitre plate is able to puncture and imbibe the solution. After 5 days, the efficacy in % is determined. 100% means that all the aphids have been killed; 0% means that no aphids have been killed.

Lucilia cuprina = Lucilia cuprina test; assay type: in vivo; settings: application rate 100 ppm, L1 larvae, after 2 days
Protocol: Lucilia cuprina Test Solvent: dimethyl sulfoxide To produce a suitable active ingredient formulation, 10 mg of active ingredient are mixed with 0.5 ml of dimethyl sulfoxide, and the concentrate is diluted with water to the desired concentration. About 20 L1 larvae of the Australian sheep blowfly (Lucilia cuprina) are transferred into a test vessel containing minced horsemeat and the active ingredient formulation of the desired concentration. After 2 days, the kill in % is determined. 100% means that all the larvae have been killed; 0% means that no larvae have been killed.

Musca domestica = Musca domestica test; assay type: in vivo; settings: application rate 100 ppm, adult houseflies, after 2 days
Protocol: Musca domestica Test Solvent: dimethyl sulfoxide To produce a suitable active ingredient formulation, 10 mg of active ingredient are mixed with 0.5 ml of dimethyl sulfoxide, and the concentrate is diluted with water to the desired concentration. Vessels containing a sponge treated with sugar solution and the active ingredient formulation of the desired concentration are populated with 10 adult houseflies (Musca domestica). After 2 days, the kill in % is determined. 100% means that all of the flies have been killed; 0% means that none of the flies have been killed.

chromatographic logP [2] | Structure (SMILES) | pest or weed control at 20 g/ha (Myzus persicae [1]) [%] | pest or weed control at 100 g/ha (Myzus persicae [1]) [%] | pest or weed control at 4 ppm (Myzus persicae [3]) [%] | other results
1.97 | CCS(=O)(=O)c1c(-c2nc3cc(C(F)(F)F)ncc3n2C)nc2n1CCCC2 [Example I-002, 2-(3-Ethylsulfonyl-5,6,7,8-tetrahydroimidazo[1,2-a]pyridin-2-yl)-3-methyl-6-(trifluoromethyl)imidazo[4,5-c]pyridine] | 90 | 90 |  | pest or weed control at 500 g/ha (Myzus persicae [1]; application rate 500 g/ha): 90%; efficacy (beetle larvae killed) (Phaedon cochleariae; application rate 500 g/ha): 83%
 | CCS(=O)(=O)c1c(-c2nc3cc(C(F)(F)F)ncc3n2C)nc2n1CCCC2C(F)(F)F (stereo not drawn) [Example I-004] |  |  | 100 | 
 | CCS(=O)(=O)c1c(-c2nc3cc(C(F)(F)F)ncc3n2C)nc2n1CCCC2(O)C(F)(F)F (stereo not drawn) [Example I-006] |  |  | 100 | 
 | Cn1c(-c2nc3n(c2S(C)(=O)=O)CCCC3)nc2cc(C(F)(F)F)cnc21 [Example I-014] |  | 90 | 100 | efficacy (kill) (Lucilia cuprina): 100%; efficacy (kill) (Musca domestica): 100%
 | CCS(=O)(=O)c1c(-c2nc3cc(C(F)(F)F)ccc3n2C)nc2n1CCCC2 [Example I-015] | 90 | 90 | 100 | efficacy (beetle larvae killed) (Phaedon cochleariae; application rate 100 g/ha): 83%; efficacy (kill) (Lucilia cuprina): 100%; efficacy (kill) (Musca domestica): 90%
 | Cn1c(-c2nc3n(c2S(C)(=O)=O)CCCC3)nc2cc(C(F)(F)F)ccc21 [Example I-016] |  |  | 100 | 
 | Cn1c(-c2nc3n(c2S(C)(=O)=O)CCCC3)nc2cc(C(F)(F)F)cnc21 [Example I-018] | 90 |  |  | 
 | CCS(=O)(=O)c1c(-c2nc3cc(C(F)(F)F)nc(C(C)C)c3n2C)nc2n1CCCC2 [Example I-019] | 90 | 90 | 100 | 
 | CCS(=O)(=O)c1c(-c2nc3cc(SC(F)(F)F)cnc3n2C)nc2n1CCCC2 [Example I-020] | 90 | 90 | 100 | efficacy (beetle larvae killed) (Phaedon cochleariae; application rate 100 g/ha): 100%
 | CCS(=O)(=O)c1c(-c2nc3cc(S(=O)(=O)C(F)(F)F)cnc3n2C)nc2n1CCCC2 [Example I-021] | 90 | 100 | 100 | efficacy (beetle larvae killed) (Phaedon cochleariae; application rate 100 g/ha): 100%
 | CCS(=O)(=O)c1c(-c2nc3cc([S+]([O-])C(F)(F)F)cnc3n2C)nc2n1CCCC2 (stereo not drawn) [Example I-022] | 90 |  | 100 | 
 | Cn1c(-c2nc3n(c2S(C)(=O)=O)CCCC3)nc2cc(SC(F)(F)F)cnc21 [Example I-023] | 90 | 90 | 100 | 
1.6 | CCS(=O)(=O)c1c(-c2nc3cc(C(F)(F)F)ncc3n2C)nc2n1CCCC2O (stereo not drawn) [Example I-024, 3-Ethylsulfonyl-2-[3-methyl-6-(trifluoromethyl)imidazo[4,5-c]pyridin-2-yl]-5,6,7,8-tetrahydro-imidazo[1,2-a]pyridin-8-ol] |  | 90 | 100 | 
2.8 | CCS(=O)(=O)c1c(-c2nc3cc(C(F)(F)F)nc(C(F)F)c3n2C)nc2n1CCCC2 [Example I-025, 4-(Difluoromethyl)-2-[3-(ethylsulfonyl)-5,6,7,8-tetrahydroimidazo[1,2-a]pyridin-2-yl]-3-methyl-6-(trifluoromethyl)-3H-imidazo[4,5-c]pyridine] |  |  | 100 | 
2.11 | CCS(=O)(=O)c1c(-c2nc3cc(C(F)(F)F)ncc3n2C)nc2n1CCCC2F (stereo not drawn) [Example I-026, 2-[3-(Ethylsulfonyl)-8-fluoro-5,6,7,8-tetrahydroimidazo[1,2-a]pyridin-2-yl]-3-methyl-6-(trifluoromethyl)-3H-imidazo[4,5-c]pyridine] |  |  |  | 
2.51 | CCS(=O)(=O)c1c(-c2nc3cc(C(F)(F)F)ncc3n2C)nc2n1CCC(C)(C)C2 [Example I-031, 2-(3-Ethysulfonyl-7,7-dimethyl-6,8-dihydro-5H-imidazo[1,2-a]pyridin-2-yl)-3-methyl-6-(trifluoromethyl)imidazo[4,5-c]pyridine] |  |  |  | 
2.8 | CCS(=O)(=O)c1c(-c2nc3cc(C(F)(F)C(F)(F)F)ncc3n2C)nc2n1CCC(C)C2 (stereo not drawn) [Example I-034, 2-(3-Ethylsulfonyl-7-methyl-5,6,7,8-tetrahydroimidazo[1,2-a]pyridin-2-yl)-3-methyl-6-(1,1,2,2,2-pentafluoroethyl)imidazo[4,5-c]pyridine] |  |  |  | 
2.1 | CCS(=O)(=O)c1c(-c2nc3cc(C(F)(F)F)nc(C)c3n2C)nc2n1CCCC2 [Example I-039, 2-(3-Ethylsulfonyl-5,6,7,8-tetrahydroimidazo[1,2-a]pyridin-2-yl)-3,4-dimethyl-6-(trifluoromethyl)imidazo[4,5-c]pyridine] |  |  |  | 
2.51 | CCc1nc(C(F)(F)F)cc2nc(-c3nc4n(c3S(=O)(=O)CC)CCCC4)n(C)c12 [Example I-040, 4-Ethyl-2-(3-ethylsulfonyl-5,6,7,8-tetrahydroimidazo[1,2-a]pyridin-2-yl)-3-methyl-6-(trifluoromethyl)imidazo[4,5-c]pyridine] |  |  |  | 
2.31 | CCS(=O)(=O)c1c(-c2nc3cc(C(F)(F)F)ncc3n2C)nc2n1CCCC2C (stereo not drawn) [Example I-043, 2-(3-Ethylsulfonyl-8-methyl-5,6,7,8-tetrahydroimidazo[1,2-a]pyridin-2-yl)-3-methyl-6-(trifluoromethyl)imidazo[4,5-c]pyridine] |  |  |  | 
2.26 | Cn1c(-c2nc3n(c2Cl)CCCC3)nc2cc(C(F)(F)F)ncc21 [Example V-001, 2-(3-Chloro-5,6,7,8-tetrahydroimidazo[1,2-a]pyridin-2-yl)-3-methyl-6-(trifluoromethyl)imidazo[4,5-c]pyridine] |  |  |  | 
3.39 | CC1CCn2c(nc(-c3nc4cc(C(F)(F)C(F)(F)F)ncc4n3C)c2Br)C1 (stereo not drawn) [Example V-002, 2-(3-Bromo-7-methyl-5,6,7,8-tetrahydroimidazo[1,2-a]pyridin-2-yl)-3-methyl-6-(1,1,2,2,2-pentafluoroethyl)imidazo[4,5-c]pyridine] |  |  |  | 
3.03 | Cn1c(-c2nc3n(c2Br)CCC(C)(C)C3)nc2cc(C(F)(F)F)ncc21 [Example V-003, 2-(3-Bromo-7,7-dimethyl-6,8-dihydro-5H-imidazo[1,2-a]pyridin-2-yl)-3-methyl-6-(trifluoromethyl)imidazo[4,5-c]pyridine] |  |  |  | 
0.27 | CC1CCn2c(nc(C(=O)O)c2Br)C1 (stereo not drawn) [III-001, 3-Bromo-7-methyl-5,6,7,8-tetrahydroimidazo[1,2-a]pyridine-2-carboxylic acid] |  |  |  | 
0.67 | CC1(C)CCn2c(nc(C(=O)O)c2Br)C1 [III-002, 3-Bromo-7,7-dimethyl-6,8-dihydro-5H-imidazo[1,2-a]pyridine-2-carboxylic acid] |  |  |  | 
